For data set [1] the following is noted: Physician's Desk Reference, 35th Edition, 1981, p. 1233; cited from earlier work.
A short description of data set [2]: Half-lives of beta blockers in dog whole blood (procedure D). In kind it is in vitro ADME. As to conditions: 37° C., read-out: T1/2 dog blood. The protocol: The rate of disappearance of a compound is expressed as the half-life (T1/2), which is the time period in which one half of the initial amount of compound tested disappears. In each experiment, 1 ml of a solution containing 50 μg of the test compound was added to 1 ml of whole blood or 1 ml of a 33% (w/v) liver homogenate. The samples were incubated in a Dubnoff shaking metabolic incubator for 2.5, 5.0, 10.0, 20.0, 30.0 and 60.0 minutes at 37° C. At the designated time periods, the test mixtures were removed from the incubator and transferred to a 0° C. ice bath. Acetonitrile (2 ml) was immediately added and the mixtures were mixed to stop enzymatic hydrolysis. Zero time samples were prepared by adding 2 ml of acetonitrile to denature the proteins prior to addition of the test compounds. After centrifugation to sediment denatured proteins, 2 ml of the supernatant was removed and analyzed by high pressure liquid chromatography, using a mobile phase of 60% acetonitrile/40% 0.05 m sodium phosphate buffer (pH 6.6), a U.V. detector and Waters u Bondapak Phenyl column. The half life of each test compound was determined graphically by plotting the decrease in concentrations as a function of time.

Data set [3] is described as follows: Enzymatic hydrolysis of beta blockers by dog liver homogenate (procedure C). In kind it is in vitro ADME. As to conditions: dog, liver homogenate, 37° C. The protocol:
(§1) Chemicals--Acetonitrile was "HPLC" grade. Distilled water was used to dissolve the compounds and 0.01N HCl was used to dissolve compounds requiring an acidic pH for dissolution.
(§2) Enzyme Source--Fresh aqueous humor was collected from eyes of dogs using a 23-gauge needle while fresh dog blood was collected into heparinized Vacutainer tubes. Fresh liver was homogenized in 0.9% NaCl using a Potter-Elvehjem Teflon pestle and glass homogenizer making a 25% (W/V) homogenate.
(§3) Incubation Condition--A 0.5 ml aliquot of dog aqueous humor, blood or liver homogenate was incubated with 12.5 μg (0.5 ml) of beta blocker in a Dubnoff shaking metabolic incubator at 37° C. for 60 and 120 min. Denatured tissue controls were prepared by adding 2.0 ml of acetonitrile into 0.5 ml of aqueous humor, blood or liver homogenate to destroy esterase activities prior to addition of the beta blockers. The controls were then incubated at 37° C. for 120 min. After 60 and 120 min, the incubations were terminated by addition of 2 ml of acetonitrile and immediately mixed by a Vortex® to stop esterase activities.
(§4) Sample Processing and Data Analyses--All samples were centrifuged at 4000 RPM for 10 min to sediment denatured proteins. The resultant supernatants were transferred to WISP® vials and analyzed using an HPLC assay developed for beta blockers. The hydrolysis of beta blockers by aqueous humor, blood and liver homogenate was determined by disappearance of the compounds. The extent of enzymatic hydrolysis by each tissue was determined by comparing the amount of each compound (absolute peak area) recovered at each time point to the amount of each compound (absolute peak area) in denatured tissue control and aqueous control samples. The results of these experiments are shown in Tabe III.

Data set [4] has as its target T1, beta adrenergic receptor (guinea pig right atria) (Cavia porcellus, UniProt H0W3H1).
T1 construct: guinea pig right atria and guinea pig tracheal strips mounted in a tissue bath; from tissue; host or cells: guinea pig right atria, spontaneously beating
Description: Beta-blocking activity in vitro, guinea pig right atria (blockade of isoproterenol rate response). Particulars: Table I; guinea pig right atria, isoproterenol agonist, 60-minute incubation, 37° C.; read-out: PA2 Rt. Atria (converted).

A short description of data set [5]: Enzymatic hydrolysis of beta blockers by dog aqueous humor (procedure C). In kind it is in vitro ADME. The protocol: as §1, §2, §3, §4
The nature of data set [6]: Enzymatic hydrolysis of beta blockers by dog blood (procedure C). In kind it is in vitro ADME. Particulars: dog, blood, 37° C. The method, then:
as §1, §2, §3, §4

The test system of data set [7] is beta adrenergic receptor (guinea pig trachea vs right atria). The experiment in a line: Degree of cardioselectivity in vitro, KB trachea/KB atria. As to conditions: Table I; ratio greater than one indicates cardioselectivity. The protocol: Each tissue was suspended between a fixed glass rod and a Statham Universal Transducer connected to a Beckman recorder. Atria were allowed to beat spontaneously under a loading tension of approximately 0.5 gm. Intrinsic depressant or stimulant activity was determined for each compound by progressively increasing concentrations in the tissue baths at 60-minute intervals. Tissues were not washed between increments. The maximum concentration showing little or no cardiodepressant activity was chosen for blockade experiments. Changes in rate in response to isoproterenol, a standard β-receptor agonist, were measured in the absence and presence of test compounds. Spiral strips of guinea pig trachea were suspended under 5 gm resting tension and incubated with phentolamine, tropolone and cocaine. Active tension was generated by addition of carbachol (3.0×10^-7 M) and decreases in tension in response to isoproterenol were quantitated. Cumulative concentration-response curves were produced with isoproterenol both before and after 60-minute incubation of test compounds with atria and trachea. […] The blocking potency of test compounds was estimated by computing pA2 values (-log […]) by the method of Furchgott, the Pharmacological Differentiation of Adrenergie Receptors, Ann. […] The degree of cardioselectivity was estimated from the ratio, KB trachea/KB atria (10^(pA.sbsp.2^atria-pA.sbsp.2^trachea)). A ratio greater than one indicates cardioselectivity. Test drugs were dissolved in distilled water and added to the bath (30 ml) in a volume of 10 or 100 μl.

Molecules are shown by their SMILES. Counter-ions that a name gives are not always drawn.

These results are taken from patent US4798892A, “2-hydroxypropylamine heteroaryl ester derivatives” (priority 1986, dated 1989).

T1 sequence (H0W3H1 1-470): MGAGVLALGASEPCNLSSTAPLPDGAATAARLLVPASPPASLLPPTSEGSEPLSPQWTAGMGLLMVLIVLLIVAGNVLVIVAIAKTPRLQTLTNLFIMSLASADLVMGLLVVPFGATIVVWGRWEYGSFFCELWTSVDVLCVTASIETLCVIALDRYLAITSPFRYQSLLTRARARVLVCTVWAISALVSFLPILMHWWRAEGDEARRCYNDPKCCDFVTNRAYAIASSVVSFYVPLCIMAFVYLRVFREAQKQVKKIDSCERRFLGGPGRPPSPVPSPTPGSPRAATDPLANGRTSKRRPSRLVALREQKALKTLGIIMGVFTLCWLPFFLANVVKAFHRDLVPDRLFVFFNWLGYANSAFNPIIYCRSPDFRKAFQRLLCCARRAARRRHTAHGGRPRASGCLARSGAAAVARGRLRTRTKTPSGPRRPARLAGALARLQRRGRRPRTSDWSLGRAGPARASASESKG

For the molecule `CC(C)(C)NC[C@H](O)COc1nsnc1N1CCOCC1` [timolol maleate], the “adverse reactions to topical use” value in data set [1] was “bronchospasm and heart failure, as well as cardiac conduction defects”.
Take `CC(C)(CNC(=O)N1CCOCC1)NCC(O)COC(=O)c1ccccc1F` (stereo not shown) [Example II, 3-[1,1-Dimethyl-2-(1-morpholinocarbonylamino)]ethylamino-2-hydroxypropyl 2-Fluorobenzoate Hydrochloride]: the half-life in data set [2] is 15 min; in data set [5] (approximate value determined by procedure C, read-out: T1/2 dog aqueous humor), 60 to 120 min. In addition, the amount remaining at 1 h is 0% in data set [3] (1 hr, read-out: Percent drug remaining, dog liver homogenate, 1 HR); 58% in data set [5] (1 hr, 37° C., read-out: Percent drug remaining, dog aqueous humor, 1 HR); 0% in data set [6] (1 hr, read-out: Percent drug remaining, dog blood, 1 HR). Moreover, the fraction remaining at 2 h in data set [3] (2 hr, read-out: Percent drug remaining, dog liver homogenate, 2 HR) worked out at 0%; in data set [5] (2 hr, 37° C., read-out: Percent drug remaining, dog aqueous humor, 2 HR), 32%; in data set [6] (2 hr, read-out: Percent drug remaining, dog blood, 2 HR) it was 0%. Besides, the Kb in data set [4] was 3.16 nM. Besides, in data set [5] (one hour, read-out: hydrolyzed in aqueous humor after one hour), the metabolised at 1 h came out at 42%. In data set [5] (two hours, read-out: hydrolyzed in aqueous humor after two hours), the metabolised at 2 h is 68%. Further, in data set [7], the “Cardioselectivity KB (Trachea)/KB (Atria)” value turned out to be 2.

In general, amount remaining refers to what is left of the initial amount, in per cent.
